Laboratory results: the supplement of paper PMC10307832

What was measured:
Assay in all cases: relative viability (nuclei count vs DMSO), 5 days (fraction); higher = more cells survive
[1] = compound: C1=CC=C(C(=C1)C2=CC=C(C=C2)C3=CSC4=C3C(=C(C(=O)N4)C#N)O)O + Cc1nc(NC(=O)N2CCC[C@H]2C(N)=O)sc1-c1ccnc(C(C)(C)C(F)(F)F)c1 [Alpelisib] (partner 2 µM)
How it was run: (§1)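 Nuclei were stained with Hoechst during a one-step fixation (final 0.05% Triton X-100, 1% formaldehyde, 1 ug/ml Hoechst) carried out 5 days after dosing, then counted on 4× images. The cells, lung cancer lines in 1536-well plates, had been dosed by pin tool the day after seeding with one drug alone or a fixed anchor-drug dose plus five library-drug doses (not always all listed) in √10 steps. Relative viability is the nuclei count in treated wells divided by that in vehicle wells, and each value is the median of duplicate plates.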

[2] = compound: C1=CC=C(C(=C1)C2=CC=C(C=C2)C3=CSC4=C3C(=C(C(=O)N4)C#N)O)O + CC1(C)CCC(c2ccc(Cl)cc2)=C(CN2CCN(c3ccc(C(=O)NS(=O)(=O)c4ccc(N[C@H](CCN5CCOCC5)CSc5ccccc5)c(S(=O)(=O)C(F)(F)F)c4)cc3)CC2)C1 [Navitoclax] (partner 0.5 µM)
How it was run: as §1

TGX 221 + Olaparib = compound: CC1=CN2C(=O)C=C(N=C2C(=C1)C(C)NC3=CC=CC=C3)N4CCOCC4 [TGX 221] + O=C(c1cc(Cc2n[nH]c(=O)c3ccccc23)ccc1F)N1CCN(C(=O)C2CC2)CC1 [Olaparib] (partner 8 µM)
How it was run: as §1

TGX 221 + Trametinib = compound: CC1=CN2C(=O)C=C(N=C2C(=C1)C(C)NC3=CC=CC=C3)N4CCOCC4 [TGX 221] + CC(=O)Nc1cccc(-n2c(=O)n(C3CC3)c(=O)c3c(Nc4ccc(I)cc4F)n(C)c(=O)c(C)c32)c1 [Trametinib] (partner 0.02 µM)
How it was run: as §1

Row | Cell Line | relative viability ([1]; first compound 0.08 µM) | relative viability ([1]; first compound 0.253 µM) | relative viability ([1]; first compound 0.8 µM) | relative viability ([1]; first compound 2.53 µM) | relative viability ([1]; first compound 8 µM) | relative viability ([2]; first compound 0.08 µM) | relative viability ([2]; first compound 0.253 µM) | relative viability ([2]; first compound 0.8 µM) | relative viability ([2]; first compound 2.53 µM) | relative viability ([2]; first compound 8 µM) | relative viability (TGX 221 + Olaparib; first compound 0.08 µM) | relative viability (TGX 221 + Olaparib; first compound 0.253 µM) | relative viability (TGX 221 + Olaparib; first compound 0.8 µM) | relative viability (TGX 221 + Olaparib; first compound 2.53 µM) | relative viability (TGX 221 + Olaparib; first compound 8 µM) | relative viability (TGX 221 + Trametinib; first compound 0.08 µM) | relative viability (TGX 221 + Trametinib; first compound 0.253 µM) | relative viability (TGX 221 + Trametinib; first compound 0.8 µM) | relative viability (TGX 221 + Trametinib; first compound 2.53 µM) | relative viability (TGX 221 + Trametinib; first compound 8 µM)
1 | HCC-827 | 1.09 | 1.01 | 0.993 | 1.06 | 1.06 | 1 | 1.12 | 1.04 | 1.04 | 1.04 | 0.647 | 0.55 | 0.615 | 0.526 | 0.0337 | 0.556 | 0.473 | 0.478 | 0.44 | 0.493
2 | NCI-H2085 | 0.872 | 1.08 | 1 | 0.973 | 0.879 | 1.12 | 1.31 | 1.06 | 1.25 | 1.01 | 0.802 | 0.75 | 0.684 | 0.536 | 0.439 | 0.505 | 0.351 | 0.374 | 0.286 | 0.276
3 | EPLC-272H | – | 1.06 | 0.978 | 0.977 | 0.76 | – | 1.11 | 1.17 | 1.12 | 0.744 | 0.786 | 0.582 | 0.845 | 0.483 | 0.504 | 0.246 | 0.269 | 0.271 | 0.242 | 0.254
4 | A-427 | 1.08 | 1.13 | 1.13 | 1.11 | 1.12 | 0.999 | 0.951 | 1.01 | 0.957 | 1.02 | 0.635 | 0.704 | 0.714 | 0.625 | 0.71 | 0.686 | 0.747 | 0.771 | 0.627 | 0.7
5 | NCI-H2228 | 0.585 | 0.927 | 0.712 | 0.803 | 0.816 | 1 | 1.12 | 0.828 | 1.12 | 0.848 | 0.557 | 0.529 | 0.471 | 0.532 | 0.541 | 0.518 | 0.526 | 0.801 | 0.379 | 0.489
6 | EMC-BAC-2 | 0.711 | 0.73 | 0.748 | 0.821 | 0.697 | 0.963 | 1.28 | 1.2 | 1.46 | 0.774 | 0.463 | 0.453 | 0.526 | 0.418 | 0.472 | 0.826 | 1.02 | 0.897 | 0.864 | 0.792
7 | NCI-H2405 | 0.761 | 0.834 | 0.867 | 0.715 | 0.715 | 0.924 | 1.04 | 0.887 | 0.776 | 0.767 | 0.803 | 0.886 | 0.858 | 0.801 | 0.75 | 0.529 | 0.571 | 0.461 | 0.465 | 0.436
8 | NCI-H1993 | 0.684 | 0.624 | 0.69 | 0.594 | 0.655 | 0.951 | 0.925 | 1.05 | 0.781 | 0.879 | 0.945 | 1.02 | 1.08 | 0.936 | 0.938 | 0.797 | 0.508 | 0.526 | 0.507 | 0.529
9 | LU99A | 0.613 | 0.5 | 0.538 | 0.507 | 0.527 | 0.64 | 0.878 | 0.804 | 0.791 | 0.769 | 0.251 | 0.258 | 0.297 | 0.251 | 0.249 | 0.507 | 0.479 | 0.557 | 0.505 | 0.493
10 | NCI-H1355 | 0.927 | 1 | 0.899 | 0.829 | 0.663 | 1.1 | 1.02 | 0.935 | 0.957 | 0.777 | 0.714 | 0.669 | 0.718 | 0.668 | 0.619 | 0.448 | 0.396 | 0.406 | 0.359 | 0.302
11 | NCI-H838 | 0.66 | 0.97 | 1.03 | 0.924 | 0.989 | 1.16 | 1.07 | 1.22 | 1.12 | 0.979 | 0.758 | 0.717 | 0.767 | 0.634 | 0.553 | 0.49 | 0.456 | 0.45 | 0.402 | 0.355
12 | SK-MES-1 | 0.863 | 0.985 | 0.96 | 0.782 | 0.675 | 1.34 | 1.34 | 1.3 | 1.14 | 1 | 0.65 | 0.691 | 0.744 | 0.554 | 0.465 | 0.526 | 0.572 | 0.449 | 0.379 | 0.339
13 | NCI-H460 | – | 0.67 | 0.596 | 0.588 | 0.387 | – | 0.414 | 1.43 | 1.31 | 0.271 | 0.4 | 0.438 | 0.389 | 0.405 | 0.38 | 0.104 | 0.121 | 0.202 | 0.171 | 0.0976
14 | HCC-78 | 0.286 | 0.485 | 0.296 | 0.29 | 0.349 | 0.826 | 1.02 | 0.754 | 0.943 | 0.708 | 0.801 | 0.69 | 0.753 | 0.618 | 0.623 | 0.735 | 0.586 | 0.757 | 0.551 | 0.469
15 | H3255 | 0.799 | 0.778 | 0.68 | 0.687 | 0.563 | 0.534 | 0.431 | 0.53 | 0.602 | 0.444 | 0.508 | 0.536 | 0.561 | 0.547 | 0.499 | 0.583 | 0.537 | 0.538 | 0.576 | 0.529
16 | NCI-H2023 | 0.517 | 0.591 | 0.644 | 0.607 | 0.585 | 0.891 | 0.89 | 0.953 | 1.03 | 1.16 | 0.539 | 0.411 | 0.549 | 0.46 | 0.405 | 0.55 | 0.397 | 0.603 | 0.469 | 0.35
17 | NCI-H1944 | 0.806 | 0.952 | 0.888 | 0.856 | 0.864 | 1.05 | 1.03 | 1.02 | 1.1 | 1.08 | – | 0.364 | 0.409 | 0.371 | 0.379 | – | 0.367 | 0.327 | 0.401 | 0.32
18 | LOU-NH91 | 0.678 | 0.789 | 0.721 | 0.663 | 0.67 | 0.693 | 0.722 | 0.658 | 0.638 | 0.551 | 0.95 | 0.904 | 0.892 | 0.951 | 0.783 | 0.818 | 0.741 | 0.756 | 0.774 | 0.709
19 | NCI-H2347 | 0.959 | 1.09 | 0.968 | 1.04 | 0.964 | 0.642 | 0.781 | 0.776 | 0.79 | 0.647 | 0.592 | 0.563 | 0.521 | 0.528 | 0.457 | 0.23 | 0.258 | 0.265 | 0.304 | 0.213
20 | CAL-12T | – | 1.05 | 0.989 | 1.2 | 0.861 | – | 1.23 | 1.22 | 1.45 | 1.06 | 0.705 | 0.709 | 0.72 | 0.678 | 0.747 | 0.272 | 0.299 | 0.316 | 0.33 | 0.325
21 | RERF-LC-KJ | 0.769 | 0.935 | 0.961 | 0.782 | 0.69 | 0.777 | 0.902 | 0.976 | 0.715 | 0.811 | 0.834 | 0.756 | 0.996 | 0.844 | 0.874 | 0.686 | 0.756 | 0.83 | 0.775 | 0.753
22 | HCC-44 | 0.661 | 0.796 | 0.767 | 0.86 | 0.663 | 0.909 | 1.09 | 1 | 0.938 | 0.65 | 1 | 1.04 | 1.05 | 1.08 | 1 | 1.07 | 1.06 | 1.14 | 1.13 | 0.945
23 | NCI-H1395 | – | 1.17 | 1.16 | 1.09 | 0.967 | – | 1.21 | 1.15 | 1.05 | 1.12 | 0.452 | 0.438 | 0.411 | 0.399 | 0.393 | 0.93 | 0.935 | 0.831 | 0.767 | 0.761
24 | COR-L 105 | 0.859 | 1.04 | 0.93 | 0.802 | 0.953 | 0.951 | 0.776 | 0.829 | 0.704 | 0.784 | 0.649 | 0.696 | 0.712 | 0.584 | 0.557 | 0.501 | 0.431 | 0.482 | 0.43 | 0.419
25 | COR-L23 | 0.832 | 0.998 | 0.702 | 0.92 | 0.63 | 1.09 | 0.983 | 1.21 | 1.06 | 0.762 | 0.368 | 0.326 | 0.405 | 0.315 | 0.334 | 0.507 | 0.592 | 0.573 | 0.577 | 0.523
26 | LXF-289 | 1.02 | 0.969 | 1.06 | 1.05 | 0.965 | 0.951 | 0.968 | 0.996 | 0.994 | 0.967 | 1.02 | 1.03 | 1.09 | 1.03 | 1.11 | 0.67 | 0.757 | 0.708 | 0.674 | 0.744
27 | PC-14 | 0.761 | 1.17 | 0.853 | 0.981 | 0.71 | 0.951 | 0.992 | 1.15 | 1.1 | 0.798 | 0.249 | 0.265 | 0.262 | 0.222 | 0.252 | 0.666 | 0.701 | 0.701 | 0.717 | 0.515
